Measured values reported in ChEMBL document CHEMBL1144021, “Molecular determinants of the anticonvulsant felbamate binding site in the N-methyl-D-aspartate receptor” (J Med Chem, 2008).

What was measured:
[1] = tested on: Glutamate receptor ionotropic, NMDA 2B (Homo sapiens), Q13224 [E236A]; experiment: Inhibition of NR2B receptor ATD E236A mutant expressed in Xenopus oocytes assessed as NMDA current at 0.5 mM relative to control; type: cell-based; details: Oocyte
[2] = tested on: Glutamate receptor ionotropic, NMDA 2B (Homo sapiens), Q13224 [E552A]; experiment: Inhibition of NR2B receptor Pre-M1 E552A mutant expressed in Xenopus oocytes assessed as NMDA current at 0.5 mM relative to control; type: cell-based; details: Oocyte
[3] = Binding affinity to NR2B receptor […]/K234A mutant
[4] = Ratio of Kapp for wild type NR2B receptor to Kapp for NR2B receptor L643A/T103A mutant
[5] = tested on: Glutamate receptor ionotropic, NMDA 2B (Homo sapiens), Q13224 [F176A]; experiment: Inhibition of NR2B receptor ATD F176A mutant expressed in Xenopus oocytes assessed as NMDA current at 0.5 mM relative to control; type: cell-based; details: Oocyte
Chain of Glutamate receptor ionotropic, NMDA 2B (Homo sapiens), Q13224 [F176A] (Q13224 whole entry F176A): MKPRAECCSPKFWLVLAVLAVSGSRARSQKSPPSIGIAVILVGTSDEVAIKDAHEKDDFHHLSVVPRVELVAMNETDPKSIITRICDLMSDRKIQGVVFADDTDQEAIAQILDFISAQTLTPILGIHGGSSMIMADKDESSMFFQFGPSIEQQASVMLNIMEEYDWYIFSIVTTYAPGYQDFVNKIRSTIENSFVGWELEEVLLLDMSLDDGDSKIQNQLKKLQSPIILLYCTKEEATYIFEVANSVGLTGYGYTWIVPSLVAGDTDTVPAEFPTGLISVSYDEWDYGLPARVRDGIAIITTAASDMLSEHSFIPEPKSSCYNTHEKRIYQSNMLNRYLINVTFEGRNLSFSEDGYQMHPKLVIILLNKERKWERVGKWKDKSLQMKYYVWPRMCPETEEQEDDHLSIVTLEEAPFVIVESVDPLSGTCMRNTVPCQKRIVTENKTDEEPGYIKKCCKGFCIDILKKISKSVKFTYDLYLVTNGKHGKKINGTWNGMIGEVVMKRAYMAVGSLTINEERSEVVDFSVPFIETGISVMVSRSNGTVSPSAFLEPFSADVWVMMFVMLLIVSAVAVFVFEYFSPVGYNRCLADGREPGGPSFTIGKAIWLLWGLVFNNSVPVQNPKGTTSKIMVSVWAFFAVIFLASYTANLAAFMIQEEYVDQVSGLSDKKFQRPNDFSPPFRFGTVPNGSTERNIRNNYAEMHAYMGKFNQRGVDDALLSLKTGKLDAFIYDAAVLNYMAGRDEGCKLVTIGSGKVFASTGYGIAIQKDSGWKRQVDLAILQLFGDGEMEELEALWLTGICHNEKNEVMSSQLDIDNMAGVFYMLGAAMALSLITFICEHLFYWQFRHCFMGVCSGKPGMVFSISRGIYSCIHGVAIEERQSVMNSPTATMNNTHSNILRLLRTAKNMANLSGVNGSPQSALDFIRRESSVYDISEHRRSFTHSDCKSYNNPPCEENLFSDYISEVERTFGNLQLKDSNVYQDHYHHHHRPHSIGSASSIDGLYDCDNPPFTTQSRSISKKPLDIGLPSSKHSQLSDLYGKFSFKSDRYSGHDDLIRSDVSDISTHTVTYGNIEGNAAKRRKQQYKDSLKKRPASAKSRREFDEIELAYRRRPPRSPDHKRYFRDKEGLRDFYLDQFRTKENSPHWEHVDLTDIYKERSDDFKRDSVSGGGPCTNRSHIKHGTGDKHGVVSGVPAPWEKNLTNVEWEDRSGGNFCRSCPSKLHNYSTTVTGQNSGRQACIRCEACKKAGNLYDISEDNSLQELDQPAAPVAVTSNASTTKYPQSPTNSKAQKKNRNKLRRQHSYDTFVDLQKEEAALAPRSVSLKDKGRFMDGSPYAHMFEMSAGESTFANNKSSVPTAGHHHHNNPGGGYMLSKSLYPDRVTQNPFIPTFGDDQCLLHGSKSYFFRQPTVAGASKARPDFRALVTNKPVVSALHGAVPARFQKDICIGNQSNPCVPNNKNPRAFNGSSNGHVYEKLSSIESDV

[6] = tested on: Glutamate receptor ionotropic, NMDA 2B (Homo sapiens), Q13224 [D104A]; experiment: Inhibition of NR2B receptor ATD D104A mutant expressed in Xenopus oocytes assessed as NMDA current at 0.5 mM relative to control; type: cell-based; details: Oocyte
[7] = tested on: Glutamate receptor ionotropic, NMDA 2B (Homo sapiens), Q13224 [D101A]; experiment: Inhibition of NR2B receptor ATD D101A mutant expressed in Xenopus oocytes assessed as NMDA current at 0.5 mM relative to control; type: cell-based; details: Oocyte
[8] = tested on: Glutamate receptor ionotropic, NMDA 2B (Homo sapiens), Q13224 [S645A]; experiment: Binding affinity to NR2B receptor M3c S645A mutant
[9] = Ratio of Kapp for wild type NR2B receptor to Kapp for NR2B receptor L643A/S645A mutant
[10] = tested on: Glutamate receptor ionotropic, NMDA 2B (Homo sapiens), Q13224 [A644C]; experiment: Inhibition of NR2B receptor M3c A644C mutant expressed in Xenopus oocytes assessed as NMDA current at 0.5 mM relative to control; type: cell-based; details: Oocyte
[11] = tested on: Glutamate receptor ionotropic, NMDA 2B (Homo sapiens), Q13224 [S645A,I641A]; experiment: Binding affinity to NR2B receptor S645A/I641A mutant
[12] = tested on: Glutamate receptor ionotropic, NMDA 2B (Homo sapiens), Q13224 [V558A]; experiment: Inhibition of NR2B receptor Pre-M1 V558A mutant expressed in Xenopus oocytes assessed as NMDA current at 0.5 mM relative to control; type: cell-based; details: Oocyte
[13] = tested on: Glutamate receptor ionotropic, NMDA 2B (Homo sapiens), Q13224 [T233A]; experiment: Binding affinity to NR2B receptor ATD T233A mutant
[14] = tested on: Glutamate receptor ionotropic, NMDA 2B (Homo sapiens), Q13224 [N542A]; experiment: Inhibition of NR2B receptor Pre-M1 N542A mutant expressed in Xenopus oocytes assessed as NMDA current at 0.5 mM relative to control; type: cell-based; details: Oocyte
[15] = target: Glutamate receptor ionotropic, NMDA 2B (Homo sapiens) (UniProt Q13224); experiment: Inhibition of wild type NR2B receptor expressed in Xenopus oocytes assessed as NMDA current at 0.5 mM relative to control; type: cell-based; details: Oocyte
Chain of Glutamate receptor ionotropic, NMDA 2B (Homo sapiens) (Q13224 27-1484 limits assumed): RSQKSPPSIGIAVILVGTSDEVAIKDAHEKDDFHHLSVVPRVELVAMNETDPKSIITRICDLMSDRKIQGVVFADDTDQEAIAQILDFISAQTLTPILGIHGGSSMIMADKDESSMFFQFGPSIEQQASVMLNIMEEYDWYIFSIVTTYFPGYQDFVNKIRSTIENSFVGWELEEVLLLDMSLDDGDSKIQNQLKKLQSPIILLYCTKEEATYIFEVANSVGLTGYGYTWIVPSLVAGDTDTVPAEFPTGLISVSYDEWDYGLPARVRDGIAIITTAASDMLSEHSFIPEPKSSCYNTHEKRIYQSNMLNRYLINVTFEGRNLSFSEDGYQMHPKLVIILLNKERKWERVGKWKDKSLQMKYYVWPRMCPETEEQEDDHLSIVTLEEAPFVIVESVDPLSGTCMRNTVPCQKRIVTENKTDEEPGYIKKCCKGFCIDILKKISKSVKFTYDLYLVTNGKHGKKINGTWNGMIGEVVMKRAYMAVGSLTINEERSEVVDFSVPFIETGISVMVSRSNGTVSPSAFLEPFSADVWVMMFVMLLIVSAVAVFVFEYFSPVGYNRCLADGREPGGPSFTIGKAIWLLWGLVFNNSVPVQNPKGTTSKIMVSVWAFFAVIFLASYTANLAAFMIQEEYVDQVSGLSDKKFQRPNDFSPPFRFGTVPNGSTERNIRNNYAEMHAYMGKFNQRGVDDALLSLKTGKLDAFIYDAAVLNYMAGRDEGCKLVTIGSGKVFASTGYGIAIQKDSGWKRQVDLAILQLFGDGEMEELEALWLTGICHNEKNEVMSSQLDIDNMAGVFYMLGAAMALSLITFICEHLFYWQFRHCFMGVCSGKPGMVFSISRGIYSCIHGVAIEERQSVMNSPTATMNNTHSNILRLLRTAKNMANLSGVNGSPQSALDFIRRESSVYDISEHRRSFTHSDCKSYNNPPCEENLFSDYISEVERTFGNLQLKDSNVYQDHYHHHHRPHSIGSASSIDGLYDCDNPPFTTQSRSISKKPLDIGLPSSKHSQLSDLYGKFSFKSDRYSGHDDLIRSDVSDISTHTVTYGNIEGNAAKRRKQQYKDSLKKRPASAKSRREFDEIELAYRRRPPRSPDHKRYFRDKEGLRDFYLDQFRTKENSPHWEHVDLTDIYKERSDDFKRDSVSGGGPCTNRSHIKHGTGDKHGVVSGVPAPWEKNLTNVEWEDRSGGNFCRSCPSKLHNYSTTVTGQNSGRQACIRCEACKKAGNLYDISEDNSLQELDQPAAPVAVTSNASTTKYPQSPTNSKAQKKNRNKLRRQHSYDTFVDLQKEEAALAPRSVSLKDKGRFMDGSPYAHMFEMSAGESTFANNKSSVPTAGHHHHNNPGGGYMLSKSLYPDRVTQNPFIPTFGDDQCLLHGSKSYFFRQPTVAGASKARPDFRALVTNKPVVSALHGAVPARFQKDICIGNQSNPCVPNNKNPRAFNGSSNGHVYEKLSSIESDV

[16] = tested on: Glutamate receptor ionotropic, NMDA 2B (Homo sapiens), Q13224 [T103A,K234A]; experiment: Binding affinity to NR2B receptor T103A/K234A mutant
[17] = Ratio of Kapp for wild type NR2B receptor to Kapp for NR2B receptor S645A/K234A mutant
[18] = Ratio of Kapp for wild type NR2B receptor to Kapp for NR2B receptor ATD E236A mutant
[19] = tested on: Glutamate receptor ionotropic, NMDA 2B (Homo sapiens), Q13224 [L643A,K234A]; experiment: Binding affinity to NR2B receptor L643A/K234A mutant
[20] = tested on: Glutamate receptor ionotropic, NMDA 2B (Homo sapiens), Q13224 [T647A]; experiment: Inhibition of NR2B receptor M3c T647A mutant expressed in Xenopus oocytes assessed as NMDA current at 0.5 mM relative to control; type: cell-based; details: Oocyte
[21] = tested on: Glutamate receptor ionotropic, NMDA 2B (Homo sapiens), Q13224 [F176A]; experiment: Binding affinity to NR2B receptor ATD F176A mutant
[22] = tested on: Glutamate receptor ionotropic, NMDA 2B (Homo sapiens), Q13224 [K234A]; experiment: Binding affinity to NR2B receptor ATD K234A mutant
Chain of Glutamate receptor ionotropic, NMDA 2B (Homo sapiens), Q13224 [K234A] (Q13224 whole entry K234A): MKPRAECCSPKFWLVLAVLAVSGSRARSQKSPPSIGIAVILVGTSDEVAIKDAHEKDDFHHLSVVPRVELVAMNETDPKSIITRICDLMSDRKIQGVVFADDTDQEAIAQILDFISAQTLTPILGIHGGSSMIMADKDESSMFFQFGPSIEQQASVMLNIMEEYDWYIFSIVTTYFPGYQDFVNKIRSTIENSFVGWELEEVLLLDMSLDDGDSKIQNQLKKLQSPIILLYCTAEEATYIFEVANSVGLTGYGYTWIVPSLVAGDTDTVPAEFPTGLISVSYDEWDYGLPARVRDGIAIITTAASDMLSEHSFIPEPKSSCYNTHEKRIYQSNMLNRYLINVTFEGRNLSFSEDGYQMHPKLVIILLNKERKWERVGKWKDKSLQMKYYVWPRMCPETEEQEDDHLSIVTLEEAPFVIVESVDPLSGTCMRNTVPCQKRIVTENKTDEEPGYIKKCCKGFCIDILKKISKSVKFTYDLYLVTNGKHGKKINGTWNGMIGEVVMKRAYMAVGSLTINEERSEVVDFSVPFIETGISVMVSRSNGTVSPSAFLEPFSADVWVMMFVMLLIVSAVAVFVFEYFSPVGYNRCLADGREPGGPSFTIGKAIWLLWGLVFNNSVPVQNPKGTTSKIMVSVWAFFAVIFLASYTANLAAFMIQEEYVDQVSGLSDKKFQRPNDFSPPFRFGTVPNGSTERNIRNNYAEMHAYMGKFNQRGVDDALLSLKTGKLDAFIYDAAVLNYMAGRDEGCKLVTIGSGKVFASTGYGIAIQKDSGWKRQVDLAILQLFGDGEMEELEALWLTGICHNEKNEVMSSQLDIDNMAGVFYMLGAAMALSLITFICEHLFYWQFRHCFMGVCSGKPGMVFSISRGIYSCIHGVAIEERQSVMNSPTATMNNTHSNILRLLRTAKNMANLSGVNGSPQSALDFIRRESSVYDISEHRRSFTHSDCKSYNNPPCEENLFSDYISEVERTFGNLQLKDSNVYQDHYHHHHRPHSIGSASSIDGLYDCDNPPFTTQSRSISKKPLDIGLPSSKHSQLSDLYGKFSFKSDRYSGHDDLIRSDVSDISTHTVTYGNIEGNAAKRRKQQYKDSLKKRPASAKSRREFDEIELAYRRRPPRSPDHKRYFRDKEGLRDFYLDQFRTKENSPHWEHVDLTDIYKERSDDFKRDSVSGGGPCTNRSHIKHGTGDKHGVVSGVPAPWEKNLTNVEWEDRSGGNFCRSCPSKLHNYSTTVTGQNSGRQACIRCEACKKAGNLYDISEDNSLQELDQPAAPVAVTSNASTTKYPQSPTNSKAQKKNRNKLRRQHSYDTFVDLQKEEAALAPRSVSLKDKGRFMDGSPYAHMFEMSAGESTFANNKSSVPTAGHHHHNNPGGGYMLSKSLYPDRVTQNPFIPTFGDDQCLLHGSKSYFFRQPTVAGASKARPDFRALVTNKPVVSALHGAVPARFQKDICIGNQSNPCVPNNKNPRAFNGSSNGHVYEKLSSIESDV

[23] = Ratio of Kapp for wild type NR2B receptor to Kapp for NR2B receptor M3c S645A mutant
[24] = tested on: Glutamate receptor ionotropic, NMDA 2B (Homo sapiens), Q13224 [N615A]; experiment: Inhibition of NR2B receptor M2 N615A mutant expressed in Xenopus oocytes assessed as NMDA current at 0.5 mM relative to control; type: cell-based; details: Oocyte
[25] = tested on: Glutamate receptor ionotropic, NMDA 2B (Homo sapiens), Q13224 [T544A]; experiment: Inhibition of NR2B receptor Pre-M1 T544A mutant expressed in Xenopus oocytes assessed as NMDA current at 0.5 mM relative to control; type: cell-based; details: Oocyte
[26] = tested on: Glutamate receptor ionotropic, NMDA 2B (Homo sapiens), Q13224 [K234A]; experiment: Inhibition of NR2B receptor ATD K234A mutant expressed in Xenopus oocytes assessed as NMDA current at 0.5 mM relative to control; type: cell-based; details: Oocyte
[27] = tested on: Glutamate receptor ionotropic, NMDA 2B (Homo sapiens), Q13224 [N616A]; experiment: Inhibition of NR2B receptor M2 N616A mutant expressed in Xenopus oocytes assessed as NMDA current at 0.5 mM relative to control; type: cell-based; details: Oocyte
[28] = target: Glutamate receptor ionotropic, NMDA 2B (Homo sapiens) (UniProt Q13224); experiment: Binding affinity to NR2B receptor
[29] = tested on: Glutamate receptor ionotropic, NMDA 2B (Homo sapiens), Q13224 [M654A]; experiment: Inhibition of NR2B receptor post-M3 M654A mutant expressed in Xenopus oocytes assessed as NMDA current at 0.5 mM relative to control; type: cell-based; details: Oocyte
[30] = Ratio of Kapp for wild type NR2B receptor to Kapp for NR2B receptor S645A/I641A mutant
[31] = tested on: Glutamate receptor ionotropic, NMDA 2B (Homo sapiens), Q13224 [L643A,S645A]; experiment: Binding affinity to NR2B receptor L643A/S645A mutant
[32] = tested on: Glutamate receptor ionotropic, NMDA 2B (Homo sapiens), Q13224 [F550A]; experiment: Inhibition of NR2B receptor Pre-M1 F550A mutant expressed in Xenopus oocytes assessed as NMDA current at 0.5 mM relative to control; type: cell-based; details: Oocyte
[33] = tested on: Glutamate receptor ionotropic, NMDA 2B (Homo sapiens), Q13224 [I641A]; experiment: Binding affinity to NR2B receptor M3c I641A mutant
[34] = tested on: Glutamate receptor ionotropic, NMDA 2B (Homo sapiens), Q13224 [S548A]; experiment: Inhibition of NR2B receptor Pre-M1 S548A mutant expressed in Xenopus oocytes assessed as NMDA current at 0.5 mM relative to control; type: cell-based; details: Oocyte
[35] = tested on: Glutamate receptor ionotropic, NMDA 2B (Homo sapiens), Q13224 [L643A,T103A]; experiment: Binding affinity to NR2B receptor L643A/T103A mutant
[36] = Binding affinity to NR2B receptor […]/S645A mutant

Work on `NC(=O)OCC(COC(N)=O)c1ccccc1` yielded an inhibition [1] of 83%, an inhibition [2] of 77% and a Kapp [3] of 7 mM. The Ratio Ki(app) [4] was 5.8, the inhibition [5] was 84% and the inhibition [6] was 75%. The inhibition [7] was 83%, the Kapp [8] was 4.23 mM and the Ratio Ki(app) [9] was 7.7. It also gave an inhibition [10] of 73%, a Kapp [11] of 4.43 mM and an inhibition [12] of 71%. The Kapp [13] was 2.56 mM, the inhibition [14] was 73% and the inhibition [15] was 68%. For the same molecule, the Kapp [16] was 4.14 mM, the Ratio Ki(app) [17] was 8.2 and the Ratio Ki(app) [18] was 2.5. For the same molecule, the Kapp [19] was 6.33 mM, the inhibition [20] was 89% and the Kapp [21] was 2.77 mM. The Kapp [22] was 4.31 mM, the Ratio Ki(app) [23] was 4.9 and the inhibition [24] was 66%. It also gave an inhibition [25] of 69%, an inhibition [26] of 85% and an inhibition [27] of 72%. For the same molecule, the Kapp [28] was 0.87 mM, the inhibition [29] was 71% and the Ratio Ki(app) [30] was 5.1. It also gave a Kapp [31] of 6.68 mM, an inhibition [32] of 62% and a Kapp [33] of 2.45 mM. It also gave an inhibition [34] of 76%, a Kapp [35] of 5.07 mM and a Kapp [36] of 7.04 mM.
